Our source for the IC50 values is patent publication US10329302B2, “Bicyclic-fused heteroaryl or aryl compounds” (Pfizer Inc., priority 2014, dated 2019).

As a reminder, the IC50 is the concentration that gives 50% inhibition.

The subject of one experiment is R848-induced TNFα production by human peripheral blood mononuclear cells (PBMCs). The experiment can be described thus: R848 Induced TNFα in Human PBMC Assay. In kind it is cell-based. The following applies: Homo sapiens, PBMC, 3 h, read-out: R848-induced TNFa PBMC IC50 (nM).
Consider `COc1cc2c(OC[C@H]3NC(=O)C(F)[C@H]3C)ccc(F)c2cc1C(N)=O` (stereo in doubt) [Example 220, 8-fluoro-5-{[(2S,3S,4S)-4-fluoro-3-methyl-5-oxopyrrolidin-2-yl]methoxy}-3-methoxynaphthalene-2-carboxamide], for which the IC50 was determined as 14 nM.

Turning to `COc1cc2c(OC[C@H]3NC(=O)[C@H]4C3[C@H]4F)nccc2cc1C(N)=O` (stereo in doubt) [Example 334, 1-(((1R,2S,5R,6R)-6-fluoro-4-oxo-3-azabicyclo[3.1.0]hexan-2-yl)methoxy)-7-methoxyisoquinoline-6-carboxamide], the IC50 was found to be 1770 nM.

As to `CC(C)Oc1cc2c(OC[C@@H]3CCC(=O)N3)nccc2cc1C#N` [Example 03, 1-{[(2S)-5-oxopyrrolidin-2-yl]methoxy}-7-(propan-2-yloxy)isoquinoline-6-carbonitrile], the IC50 stood at 2740 nM.

For the compound `CC(C)Oc1cc2c(OC[C@@H]3COC(=O)N3)nccc2cc1C(N)=O` [Example 04, 1-{[(4R)-2-oxo-1,3-oxazolidin-4-yl]methoxy}-7-(propan-2-yloxy)isoquinoline-6-carboxamide], the IC50 stood at 1800 nM.

Turning to `COc1cc2c(OC[C@H]3NC(=O)[C@@H](F)[C@@H]3C)nccc2cc1C(N)=O` [Example 203, 1-{[(2S,3R,4S)-4-fluoro-3-methyl-5-oxopyrrolidin-2-yl]methoxy}-7-methoxyisoquinoline-6-carboxamide], the IC50 amounted to 47 nM.

For `COc1cc2c(OC[C@@H]3NC(=O)C[C@@H]3C)nccc2cc1C(N)=O` [Example 277, 7-methoxy-1-{[(2R,3S)-3-methyl-5-oxopyrrolidin-2-yl]methoxy}isoquinoline-6-carboxamide], the IC50 came to 4420 nM.

As to `CCOc1cc2c(OC[C@H]3NC(=O)[C@@H](F)[C@H]3C)nccc2cc1C(N)=O` [Example 283, 7-ethoxy-1-{[(2S,3S,4S)-4-fluoro-3-methyl-5-oxopyrrolidin-2-yl]methoxy}isoquinoline-6-carboxamide], the IC50 is 27 nM.

In the case of `COc1cc2c(OC[C@@H]3C[C@@](F)(C4CCOCC4)C(=O)N3)nccc2cc1C(N)=O` [Example 284, 1-{[(2S,4R)-4-fluoro-5-oxo-4-(tetrahydro-2H-pyran-4-yl)pyrrolidin-2-yl]methoxy}-7-methoxyisoquinoline-6-carboxamide], the IC50 turned out to be 320 nM.

In the case of `COc1cc2c(OC[C@@H]3C[C@@H](C4CCOCC4)C(=O)N3)nccc2cc1C(N)=O` [Example 286, 7-methoxy-1-{[(2S,4S)-5-oxo-4-(tetrahydro-2H-pyran-4-yl)pyrrolidin-2-yl]methoxy}isoquinoline-6-carboxamide], the IC50 amounted to 7020 nM.

In the case of `CCOc1cc2c(OC[C@@H]3C[C@](C)(F)C(=O)N3)ccnc2cc1C(N)=O` [Example 287, 6-ethoxy-4-{[(2S,4S)-4-fluoro-4-methyl-5-oxopyrrolidin-2-yl]methoxy}quinoline-7-carboxamide], the IC50 amounted to 2300 nM.

For the compound `COc1cc2c(OC[C@@H]3NC(=O)[C@H](F)[C@@H]3C)nccc2cc1C(N)=O` [Example 288, 1-{[(2R,3R,4R)-4-fluoro-3-methyl-5-oxopyrrolidin-2-yl]methoxy}-7-methoxyisoquinoline-6-carboxamide], the IC50 was determined as 1810 nM.

With `COc1cc2c(OC[C@@H]3C[C@@H](C4(O)CCOCC4)C(=O)N3)nccc2cc1C(N)=O` [Example 289, 1-{[(2S,4S)-4-(4-hydroxytetrahydro-2H-pyran-4-yl)-5-oxopyrrolidin-2-yl]methoxy}-7-methoxyisoquinoline-6-carboxamide], the concentration for half-maximal inhibition (IC50) came out at 6270 nM.

Regarding `COC[C@]1(F)C[C@@H](COc2nccc3cc(C(N)=O)c(OC)cc23)NC1=O` [Example 292, 1-{[(2S,4R)-4-fluoro-4-(methoxymethyl)-5-oxopyrrolidin-2-yl]methoxy}-7-methoxyisoquinoline-6-carboxamide], the IC50 is 3140 nM.

Take `CCOc1cc2c(OC[C@@H]3C[C@@](F)(CF)C(=O)N3)ccnc2cc1C(N)=O` [Example 293, 6-ethoxy-4-{[(2S,4S)-4-fluoro-4-(fluoromethyl)-5-oxopyrrolidin-2-yl]methoxy}quinoline-7-carboxamide]: the IC50 was 462 nM.

With `CCOc1cc2c(OC[C@@H]3C[C@@](F)(CF)C(=O)N3)nccc2cc1C(N)=O` [Example 294, 7-ethoxy-1-{[(2S,4S)-4-fluoro-4-(fluoromethyl)-5-oxopyrrolidin-2-yl]methoxy}isoquinoline-6-carboxamide], the IC50 was determined as 24 nM.

For `COc1cc2c(OC[C@H]3NC(=O)[C@@H]4C[C@]34C)nccc2cc1C(N)=O` [Example 295, 7-methoxy-1-{[(1S,2S,5R)-1-methyl-4-oxo-3-azabicyclo[3.1.0]hex-2-yl]methoxy}isoquinoline-6-carboxamide], the IC50 was 67 nM.

As for `COc1cc2c(OC[C@H]3NC(=O)[C@]4(C)C[C@H]34)nccc2cc1C(N)=O` [Example 297, 7-methoxy-1-{[(1S,2S,5R)-5-methyl-4-oxo-3-azabicyclo[3.1.0]hex-2-yl]methoxy}isoquinoline-6-carboxamide], the IC50 is 7120 nM.

Take `CC[C@]12C[C@H]1C(=O)N[C@@H]2COc1nccc2cc(C(N)=O)c(OC)cc12` [Example 299, 1-{[(1S,2S,5R)-1-ethyl-4-oxo-3-azabicyclo[3.1.0]hex-2-yl]methoxy}-7-methoxyisoquinoline-6-carboxamide]: the IC50 was 49 nM.

As for `CC[C@@H]1[C@H]2C(=O)N[C@H](COc3nccc4cc(C(N)=O)c(OC)cc34)[C@@H]12` [Example 300, 1-{[(1S,2S,5R)-6-ethyl-4-oxo-3-azabicyclo[3.1.0]hex-2-yl]methoxy}-7-methoxyisoquinoline-6-carboxamide], the IC50 amounted to 931 nM.

For `COc1cc2c(OC[C@@H]3CCCC(=O)N3)nccc2cc1C(N)=O` [Example 302, 7-methoxy-1-{[(2S)-6-oxopiperidin-2-yl]methoxy}isoquinoline-6-carboxamide], the 50% inhibitory concentration (IC50) stood at 1280 nM.

On to `COc1cc2c(OC[C@H]3NC(=O)C[C@H]3C3CC3)nccc2cc1C(N)=O` [Example 305, 1-{[(2S,3S)-3-cyclopropyl-5-oxopyrrolidin-2-yl]methoxy}-7-methoxyisoquinoline-6-carboxamide], for which the IC50 is 57 nM.

Regarding `COc1cc2c(OC[C@H]3NC(=O)[C@@H]4CC[C@H]34)nccc2cc1C(N)=O` [Example 308, 7-methoxy-1-{[(1S,2S,5R)-4-oxo-3-azabicyclo[3.2.0]hept-2-yl]methoxy}isoquinoline-6-carboxamide], the IC50 worked out at 134 nM.

The experiment is the same for the next values; noted with them: human PBMC, absence of serum, 3 hours; read-out: R848-induced TNFa PBMC IC50.
For the compound `CC[C@]1(O)[C@H](F)C(=O)N[C@@H]1COc1nccc2cc(C(N)=O)c(OC)cc12` [Example 196, 1-{[(2R,3R,4S)-3-ethyl-4-fluoro-3-hydroxy-5-oxopyrrolidin-2-yl]methoxy}-7-methoxyisoquinoline-6-carboxamide], the IC50 was 11 nM.

As for `CC[C@@H]1[C@H](F)C(=O)NC1(O)COc1nccc2cc(C(N)=O)c(OC)cc12` (stereo partly drawn) [Example 197, 1-{[(3S,4S)-3-ethyl-4-fluoro-2-hydroxy-5-oxopyrrolidin-2-yl]methoxy}-7-methoxyisoquinoline-6-carboxamide], the IC50 turned out to be 71 nM.

On to `COc1cc2c(OC[C@H]3NC(=O)[C@@H](F)[C@H]3C(C)O)nccc2cc1C(N)=O` (stereo partly drawn) [Example 198, 1-{[(2S,3R,4S)-4-fluoro-3-(1-hydroxyethyl)-5-oxopyrrolidin-2-yl]methoxy}-7-methoxyisoquinoline-6-carboxamide], for which the IC50 turned out to be 715 nM.

Consider `COc1cc2c(OC[C@@H]3C[C@@](F)(CO)C(=O)N3)cccc2cc1C(N)=O` [Example 207, 5-{[(2S,4R)-4-fluoro-4-(hydroxymethyl)-5-oxopyrrolidin-2-yl]methoxy}-3-methoxynaphthalene-2-carboxamide], for which the IC50 is 41 nM.

As for `COc1cc2c(OC[C@@H]3C[C@@](F)(CC(F)(F)F)C(=O)N3)cccc2cc1C(N)=O` [Example 240, 5-{[(2S,4R)-4-fluoro-5-oxo-4-(2,2,2-trifluoroethyl)pyrrolidin-2-yl]methoxy}-3-methoxynaphthalene-2-carboxamide], the IC50 is 24 nM.

In the case of `COc1cc2c(OC[C@@H]3C[C@](F)(CC(F)(F)F)C(=O)N3)cccc2cc1C(N)=O` [Example 241, 5-{[(2S,4S)-4-fluoro-5-oxo-4-(2,2,2-trifluoroethyl)pyrrolidin-2-yl]methoxy}-3-methoxynaphthalene-2-carboxamide], the IC50 came out at 5760 nM.

As for `[2H]C([2H])([2H])Oc1cc2c(OC[C@H]3NC(=O)[C@@H](F)[C@H]3CC)nccc2cc1C(N)=O` [Example 338, 1-{[(2S,3S,4S)-3-ethyl-4-fluoro-5-oxopyrrolidin-2-yl]methoxy}-7-[(trideutero)methyloxy]isoquinoline-6-carboxamide], the IC50 turned out to be 3 nM.

`[2H]C([2H])([2H])C([2H])([2H])[C@@H]1[C@H](F)C(=O)N[C@@H]1COc1nccc2cc(C(N)=O)c(OC)cc12` [Example 344, 1-{[(2S,3S,4S)-3-(pentadeutero)ethyl-4-fluoro-5-oxopyrrolidin-2-yl]methoxy}-7-methoxyisoquinoline-6-carboxamide]: the IC50 turned out to be 0.5 nM.

With `CC[C@@H]1[C@@H](COc2nccc3cc(C(N)=O)c(OC)cc23)NC(=O)[C@@H]1F` [Example 346, 1-{[(2S,3R,4R)-3-ethyl-4-fluoro-5-oxopyrrolidin-2-yl]methoxy}-7-methoxyisoquinoline-6-carboxamide], the IC50 amounted to 150 nM.

As for `[2H][C@]1(CC)[C@@H](COc2nccc3cc(C(N)=O)c(OC)cc23)NC(=O)[C@@]1([2H])F` [Example 374, 1-{[(2S,3S,4S)-3-ethyl-4-fluoro-5-oxo(3,4-bisdeutero)pyrrolidin-2-yl]methoxy}-7-methoxyisoquinoline-6-carboxamide], the IC50 stood at 1.2 nM.

The target of a further experiment is human IRAK4 FL (Full Length) (Homo sapiens (Human), UniProt Q9NWZ3). In words: IRAK4 Enzymatic DELFIA Assay, Protocol A. The following applies: human IRAK4 FL, 0.6 mM ATP (KM); read-out: IRAK4 DELFIA Protocol A IC50. It is filed as biochemical.
Sequence of human IRAK4 FL (Full Length) (Q9NWZ3 whole entry): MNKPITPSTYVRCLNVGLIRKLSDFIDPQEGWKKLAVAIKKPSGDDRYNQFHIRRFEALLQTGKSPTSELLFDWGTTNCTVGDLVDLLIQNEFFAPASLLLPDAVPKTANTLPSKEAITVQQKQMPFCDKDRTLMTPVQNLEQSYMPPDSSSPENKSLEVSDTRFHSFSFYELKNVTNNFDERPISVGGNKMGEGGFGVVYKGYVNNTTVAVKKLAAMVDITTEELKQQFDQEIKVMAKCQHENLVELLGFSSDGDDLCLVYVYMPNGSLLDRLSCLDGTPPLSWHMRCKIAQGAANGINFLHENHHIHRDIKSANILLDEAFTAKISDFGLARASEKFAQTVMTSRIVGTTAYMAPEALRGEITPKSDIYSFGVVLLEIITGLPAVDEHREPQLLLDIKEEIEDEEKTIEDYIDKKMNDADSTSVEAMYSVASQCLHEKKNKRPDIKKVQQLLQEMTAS
Take `COc1cc2c(OC[C@H]3NC(=O)C(F)[C@H]3C)ccc(F)c2cc1C(N)=O` (stereo in doubt) [Example 220, 8-fluoro-5-{[(2S,3S,4S)-4-fluoro-3-methyl-5-oxopyrrolidin-2-yl]methoxy}-3-methoxynaphthalene-2-carboxamide]: the IC50 worked out at 0.0009 µM.

Regarding `COc1cc2c(OC[C@H]3NC(=O)[C@H]4C3[C@H]4F)nccc2cc1C(N)=O` (stereo in doubt) [Example 334, 1-(((1R,2S,5R,6R)-6-fluoro-4-oxo-3-azabicyclo[3.1.0]hexan-2-yl)methoxy)-7-methoxyisoquinoline-6-carboxamide], the IC50 amounted to 0.0042 µM.

Consider `CC(C)Oc1cc2c(OC[C@@H]3CCC(=O)N3)nccc2cc1C#N` [Example 03, 1-{[(2S)-5-oxopyrrolidin-2-yl]methoxy}-7-(propan-2-yloxy)isoquinoline-6-carbonitrile], for which the IC50 is 0.575 µM.

With `CC(C)Oc1cc2c(OC[C@@H]3COC(=O)N3)nccc2cc1C(N)=O` [Example 04, 1-{[(4R)-2-oxo-1,3-oxazolidin-4-yl]methoxy}-7-(propan-2-yloxy)isoquinoline-6-carboxamide], the IC50 was found to be 0.0066 µM.
